In ChEMBL document CHEMBL3871277, “Synthesis and anti-metastatic effects of pregn-17(20)-en-3-amine derivatives” (Eur J Med Chem, 2016):
Calls of active or inactive are those of the source. No cut-off for these calls is given here.

Legend:
[1] = Antimigratory activity against EGF induced chemotaxis in human MDA-MB-231 cells preincubated for 24 hrs followed by EGF addition for 3.5 hrs by light microscopy; format: functional, cell-based
[2] = tested on: MDA-MB-231; assay: Antimigratory activity in human MDA-MB-231 cells assessed as decrease in cell adhesion at 0.25 uM after 24 hrs by MTT assay; format: functional, cell-based
[3] = Anti-invasive activity in human HepG2 cells at 4.5 uM after 24 hrs by MTT dye based boyden chamber assay; format: functional
[4] = Antimigratory activity in human HepG2 cells at 4.5 uM after 24 hrs by wound healing assay; format: functional
[5] = target: Integrin beta-1 (Homo sapiens) (UniProt P05556); assay: Inhibition of integrin-beta1 phosphorylation in human MDA-MB-231 cells by Western blot analysis; format: cell-based
Chain of Integrin beta-1 (Homo sapiens) (P05556 whole entry): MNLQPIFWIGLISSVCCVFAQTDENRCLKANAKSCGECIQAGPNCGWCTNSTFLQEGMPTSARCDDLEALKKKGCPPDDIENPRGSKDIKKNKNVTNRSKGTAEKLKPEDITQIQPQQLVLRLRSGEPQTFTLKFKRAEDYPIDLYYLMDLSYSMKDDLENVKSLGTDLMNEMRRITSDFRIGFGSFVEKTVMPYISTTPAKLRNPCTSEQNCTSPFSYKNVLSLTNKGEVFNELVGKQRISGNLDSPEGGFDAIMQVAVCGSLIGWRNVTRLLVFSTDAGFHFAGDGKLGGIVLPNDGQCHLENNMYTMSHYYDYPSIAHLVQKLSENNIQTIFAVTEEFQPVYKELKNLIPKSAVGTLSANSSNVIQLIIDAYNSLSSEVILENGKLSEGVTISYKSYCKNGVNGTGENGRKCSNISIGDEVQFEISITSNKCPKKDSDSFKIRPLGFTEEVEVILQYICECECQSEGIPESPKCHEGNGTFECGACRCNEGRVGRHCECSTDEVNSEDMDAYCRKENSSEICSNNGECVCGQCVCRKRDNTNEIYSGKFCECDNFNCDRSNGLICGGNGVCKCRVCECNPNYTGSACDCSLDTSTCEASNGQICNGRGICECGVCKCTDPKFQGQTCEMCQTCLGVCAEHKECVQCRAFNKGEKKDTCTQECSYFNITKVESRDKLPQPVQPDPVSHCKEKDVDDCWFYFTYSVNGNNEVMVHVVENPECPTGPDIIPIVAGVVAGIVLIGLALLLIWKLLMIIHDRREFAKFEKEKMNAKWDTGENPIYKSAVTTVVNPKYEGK

[6] = Effect on integrin-beta1 protein expression in human MDA-MB-231 cells at 5 to 45 uM by Western blot analysis; format: ADME, cell-based; settings: mda-mb-231, 45 µM
[7] = tested on: MDA-MB-231; assay: Inhibition of PI3K-p85 phosphorylation in human MDA-MB-231 cells by Western blot analysis; format: cell-based
[8] = tested on: MDA-MB-231; assay: Antimigratory activity in human MDA-MB-231 cells after 24 hrs by wound healing assay; format: functional, cell-based
[9] = tested on: MDA-MB-231; assay: Inhibition of PI3K-p85 in human MDA-MB-231 cells assessed as reduction in PKCzeta phosphorylation by Western blot analysis; format: cell-based
[10] = tested on: MDA-MB-231; assay: Antiinvasive activity in human MDA-MB-231 cells after 24 hrs by transwell migration assay; format: functional, cell-based
[11] = tested on: MDA-MB-231; assay: Inhibition of PI3K-p85 in human MDA-MB-231 cells assessed as reduction in Akt phosphorylation by Western blot analysis; format: cell-based
[12] = tested on: MDA-MB-231; assay: Antimigratory activity in human MDA-MB-231 cells assessed as decrease in cell adhesion to fibronectin at 1 to 40 uM after 24 hrs by MTT assay; format: functional, cell-based
[13] = Effect on PKCzeta protein expression in human MDA-MB-231 cells at 0.25 to 6.75 uM by Western blot analysis; format: ADME, cell-based; settings: mda-mb-231, 6.75 µM
[14] = Homo sapiens, MDA-MB-231, read-out: IC50

Row | Structure (SMILES) | IC50 [1, 14] [µM] | further results
1 | C/C=C1/C(=O)C[C@H]2[C@@H]3CCC4C[C@H](NCC)CC[C@]4(C)[C@H]3CC[C@]12C (stereo partly specified) |  | IC50 ([1]; mda-mb-231): Nd(Toxic)
2 | C/C=C1/CC[C@H]2[C@@H]3CCC4C[C@H](NCC)CC[C@]4(C)[C@H]3CC[C@]12C (stereo partly specified) | 20.2 | 
3 | C/C=C1/[C@H](O)C[C@H]2[C@@H]3CCC4C[C@H](NCC)CC[C@]4(C)[C@H]3CC[C@]12C (stereo partly specified) | 32.8 | 
4 | C/C=C1/CC[C@H]2[C@@H]3CCC4C[C@H](N(C)C)CC[C@]4(C)[C@H]3CC[C@]12C (stereo partly specified) | 7.45 | 
5 | C/C=C1/CC[C@H]2[C@@H]3CCC4C[C@@H](NCc5ccc(C#N)cc5)CC[C@]4(C)[C@H]3CC[C@]12C (stereo partly specified) | 26.7 | 
6 | C/C=C1/[C@H](O)C[C@H]2[C@@H]3CCC4C[C@@H](N)CC[C@]4(C)[C@H]3CC[C@]12C (stereo partly specified) |  | IC50 ([1]; mda-mb-231): Nd(Toxic)
7 | C/C=C1/CC[C@H]2[C@@H]3CCC4C[C@@H](N5CCCC5)CC[C@]4(C)[C@H]3CC[C@]12C (stereo partly specified) | 4.36 | 
8 | CC=C1CC[C@H]2[C@@H]3CCC4C[C@H](NC)CC[C@]4(C)[C@H]3CC[C@]12C (stereo partly specified) | > 50 | 
9 | CC=C1CC[C@H]2[C@@H]3CCC4C[C@@H](NC)CC[C@]4(C)[C@H]3CC[C@]12C (stereo partly specified) | 1.21 | 
10 | C/C=C1/[C@H](O)C[C@H]2[C@@H]3CCC4C[C@@H](NC)CC[C@]4(C)[C@H]3CC[C@]12C (stereo partly specified) | 4.77 | 
11 | C/C=C1/[C@H](O)C[C@H]2[C@@H]3CCC4C[C@H](N)CC[C@]4(C)[C@H]3CC[C@]12C (stereo partly specified) | 1.08 | 
12 | FC(F)c1nc2ccccc2n1-c1nc(N2CCOCC2)nc(N2CCOCC2)n1 |  | Activity [2]: Active
13 | O=c1cc(N2CCOCC2)oc2c(-c3ccccc3)cccc12 [LY-294002] | 0.38 | 
14 | C[C@@H]1CC[C@@]2(NC1)O[C@H]1C[C@H]3[C@@H]4CC=C5C[C@@H](O[C@@H]6O[C@H](CO)[C@@H](O[C@@H]7O[C@@H](C)[C@H](O)[C@@H](O)[C@H]7O)[C@H](O)[C@H]6O[C@@H]6O[C@@H](C)[C@H](O)[C@@H](O)[C@H]6O)CC[C@]5(C)[C@H]4CC[C@]3(C)[C@H]1[C@@H]2C [SOLAMARGINE] |  | Activity [3]: 40%; Activity [4]: 40%
15 | C/C=C1/C(=O)C[C@H]2[C@@H]3CCC4C[C@@H](N5CCCC5)CC[C@]4(C)[C@H]3CC[C@]12C (stereo partly specified) |  | IC50 ([1]; mda-mb-231): Nd(Toxic)
16 | C/C=C1/C(=O)C[C@H]2[C@@H]3CCC4C[C@@H](N(C)C)CC[C@]4(C)[C@H]3CC[C@]12C (stereo partly specified) | 2.14 | 
17 | C/C=C1/C(=O)C[C@H]2[C@@H]3CCC4C[C@@H](NC)CC[C@]4(C)[C@H]3CC[C@]12C (stereo partly specified) | 18.9 | 
18 | C/C=C1/[C@H](O)C[C@H]2[C@@H]3CCC4C[C@@H](N(C)C)CC[C@]4(C)[C@H]3CC[C@]12C (stereo partly specified) |  | IC50 ([1]; mda-mb-231): Nd(Toxic)
19 | C/C=C1/CC[C@H]2[C@@H]3CCC4C[C@@H](N)CC[C@]4(C)[C@H]3CC[C@]12C (stereo partly specified) | 0.09 | 
20 | C/C=C1/CC[C@H]2[C@@H]3CCC4C[C@@H](N5CCCCC5)CC[C@]4(C)[C@H]3CC[C@]12C (stereo partly specified) | > 50 | 
21 | C/C=C1/[C@H](O)C[C@H]2[C@@H]3CCC4C[C@H](N(C)C)CC[C@]4(C)[C@H]3CC[C@]12C (stereo partly specified) | > 50 | 
22 | C/C=C1/C(=O)C[C@H]2[C@@H]3CCC4C[C@@H](N)CC[C@]4(C)[C@H]3CC[C@]12C (stereo partly specified) | 0.48 | 
23 | C/C=C1/[C@H](O)C[C@H]2[C@@H]3CCC4C[C@@H](N5CCCC5)CC[C@]4(C)[C@H]3CC[C@]12C (stereo partly specified) |  | IC50 ([1]; mda-mb-231): Nd(Toxic)

Row | Structure (SMILES) | IC50 [1, 14] [µM] | further results
24 | C/C=C1/CC[C@H]2[C@@H]3CCC4C[C@H](N5CCCC5)CC[C@]4(C)[C@H]3CC[C@]12C (stereo partly specified) | 24.2 | 
25 | C/C=C1/C(=O)C[C@H]2[C@@H]3CCC4C[C@@H](N5CCCCC5)CC[C@]4(C)[C@H]3CC[C@]12C (stereo partly specified) | > 50 | 
26 | C/C=C1/C(=O)C[C@H]2[C@@H]3CCC4C[C@H](N5CCCC5)CC[C@]4(C)[C@H]3CC[C@]12C (stereo partly specified) | > 50 | 
27 | C/C=C1/C(=O)C[C@H]2[C@@H]3CCC4C[C@H](N5CCCCC5)CC[C@]4(C)[C@H]3CC[C@]12C (stereo partly specified) | 0.03 | inhibition [5]: Dose-dependent effect; Activity [6]: Non-Toxic; inhibition [7]: Dose-dependent effect; Activity [8]: Dose-dependent effect; inhibition [9]: Dose-dependent effect; Activity [10]: Dose-dependent effect; inhibition [11]: Dose-dependent effect; Activity [12]: Active; Activity [13]: Non-Toxic
28 | C/C=C1/[C@H](O)C[C@H]2[C@@H]3CCC4C[C@H](NCc5ccc(C#N)cc5)CC[C@]4(C)[C@H]3CC[C@]12C (stereo partly specified) |  | IC50 ([1]; mda-mb-231): Nd(Toxic)
29 | C/C=C1/[C@H](O)C[C@H]2[C@@H]3CCC4C[C@H](NC)CC[C@]4(C)[C@H]3CC[C@]12C (stereo partly specified) |  | IC50 ([1]; mda-mb-231): Nd(Toxic)
30 | C/C=C1/[C@H](O)C[C@H]2[C@@H]3CCC4C[C@H](N5CCCCC5)CC[C@]4(C)[C@H]3CC[C@]12C (stereo partly specified) | 0.85 | 
31 | C/C=C1/C(=O)C[C@H]2[C@@H]3CCC4C[C@@H](NCc5ccc(C#N)cc5)CC[C@]4(C)[C@H]3CC[C@]12C (stereo partly specified) | 0.84 | 
32 | C/C=C1/C(=O)C[C@H]2[C@@H]3CCC4C[C@H](NCc5ccc(C#N)cc5)CC[C@]4(C)[C@H]3CC[C@]12C (stereo partly specified) | 2.34 | 
33 | C/C=C1/C(=O)C[C@H]2[C@@H]3CCC4C[C@H](N)CC[C@]4(C)[C@H]3CC[C@]12C (stereo partly specified) | 0.3 | 
34 | C/C=C1/CC[C@H]2[C@@H]3CCC4C[C@@H](NCC)CC[C@]4(C)[C@H]3CC[C@]12C (stereo partly specified) | 0.17 | 
35 | C/C=C1/CC[C@H]2[C@@H]3CCC4C[C@H](N5CCCCC5)CC[C@]4(C)[C@H]3CC[C@]12C (stereo partly specified) | 2.48 | 
36 | C/C=C1/[C@H](O)C[C@H]2[C@@H]3CCC4C[C@@H](NCC)CC[C@]4(C)[C@H]3CC[C@]12C (stereo partly specified) |  | IC50 ([1]; mda-mb-231): Nd(Toxic)
37 | C/C=C1/C(=O)C[C@H]2[C@@H]3CCC4C[C@@H](NCC)CC[C@]4(C)[C@H]3CC[C@]12C (stereo partly specified) | 28.5 | 
38 | C/C=C1/CC[C@H]2[C@@H]3CCC4C[C@@H](N(C)C)CC[C@]4(C)[C@H]3CC[C@]12C (stereo partly specified) | 5.51 | 
39 | C/C=C1/C(=O)C[C@H]2[C@@H]3CCC4C[C@H](NC)CC[C@]4(C)[C@H]3CC[C@]12C (stereo partly specified) |  | IC50 ([1]; mda-mb-231): Nd(Toxic)
40 | C/C=C1/[C@H](O)C[C@H]2[C@@H]3CCC4C[C@@H](N5CCCCC5)CC[C@]4(C)[C@H]3CC[C@]12C (stereo partly specified) | 21.4 | 
41 | C/C=C1/[C@H](O)C[C@H]2[C@@H]3CCC4C[C@H](N5CCCC5)CC[C@]4(C)[C@H]3CC[C@]12C (stereo partly specified) | 0.26 | 
42 | C/C=C1/C(=O)C[C@H]2[C@@H]3CCC4C[C@H](N(C)C)CC[C@]4(C)[C@H]3CC[C@]12C (stereo partly specified) | 7.37 | 
43 | C/C=C1/CC[C@H]2[C@@H]3CCC4C[C@H](N)CC[C@]4(C)[C@H]3CC[C@]12C (stereo partly specified) | 2.21 | 
44 | C/C=C1/CC[C@H]2[C@@H]3CCC4C[C@@H](NC(=O)c5ccc(C#N)cc5)CC[C@]4(C)[C@H]3CC[C@]12C (stereo partly specified) | 0.24 | 
45 | C/C=C1/[C@H](O)C[C@H]2[C@@H]3CCC4C[C@@H](NCc5ccc(C#N)cc5)CC[C@]4(C)[C@H]3CC[C@]12C (stereo partly specified) | 15.9 | 
46 | C/C=C1/CC[C@H]2[C@@H]3CCC4C[C@H](NCc5ccc(C#N)cc5)CC[C@]4(C)[C@H]3CC[C@]12C (stereo partly specified) | > 50 | 
